The values that follow are results of earlier work, collected in patent US8512522B2, “Method of producing paper with methane reduction ingredients” (priority 2011, dated 2013).

Where two headings read alike, the source gives them in different places.

The test system of one data set is Anaerobic digester. The settings on record: methane inhibition.
In another data set the test system is Anaerobic medium. As to conditions: methane inhibition.
A further data set has as its system Marine sediments. The settings on record: methane inhibition.
Data set [1] relates to Anaerobic digested sludge + activated sludge.
The next data set relates to Sewage sludge. As to conditions: methane inhibition.

For Sodium, the “Suppressive Concentration” value with Anaerobic digester is >3,500 mg/L. On to `[Ca+2]` [Calcium], for which the “Suppressive Concentration” value in the data set on Anaerobic digester is given as >2,500 mg/L.

For the compound `[K+]` [Potassium], in the data set on Anaerobic digester, the “Suppressive Concentration” value was >2,500 mg/L.

As to `[Zn+2]` [Zinc (Zn2+)], the “Suppressive Concentration” value in the data set with Anaerobic digester is 10 to 250 mg/L. For the compound `[Ni+2]` [Nickel (Ni2+)], the “Suppressive Concentration” value in the data set with Anaerobic medium is given as 2.5 mM. Regarding `C=C` [Ethylene], in the data set on Marine sediments, the “Suppressive Concentration” value is listed as >5% v/v. As to `[Cu+2]` [Copper (Cu2+)], the “Suppressive Concentration” value in the data set with Anaerobic digester is 10 to 250 mg/L. On to `[Mg+2]` [Magnesium], for which the “Suppressive Concentration” value with Anaerobic digester is reported as >1,000 mg/L.

As to `O=S(=O)(O)CCBr` [2-Bromoethane sulfonic acid], the “Suppressive Concentration” value in data set [1] (completely inhibited, Parameswaran et al., 2009) is 50 mM; in data set [1] (potently inhibited, Chae et al., 2010), 0.1 to 0.27 mM. As for `[Fe+3]` [Ferric iron (Fe3+)], the “Suppressive Concentration” value in the data set with Sewage sludge was 21 mg/L.
